Organism: Rattus norvegicus
Assay: DrugMatrix - Regimen: Daily Repeat
Type: toxicity, organism-based, Sprague-Dawley
Parameters: regimen Daily Repeat, gender Male, age 6-8 weeks
Settings: in vivo, ip, 0 mg/kg, route intraperitoneal, dose level Control, vehicle 100 % SALINE; for ABSOLUTE BASOPHIL / ABSOLUTE EOSINOPHIL / ABSOLUTE LYMPHOCYTE / ABSOLUTE MONOCYTE / ABSOLUTE SEGMENTED NEUTROPHIL / BASOPHIL / EOSINOPHIL / ERYTHROCYTE COUNT / HEMATOCRIT / HEMOGLOBIN / LEUKOCYTE COUNT / LYMPHOCYTE / MEAN CORPUSCULAR HEMOGLOBIN / MEAN CORPUSCULAR HEMOGLOBIN CONCENTRATION / MEAN CORPUSCULAR VOLUME / MONOCYTE / NEUTROPHIL / NUCLEATED RED BLOOD CELLS / PLATELET COUNT: tissue Blood; for ALANINE AMINOTRANSFERASE / ALKALINE PHOSPHATASE / ASPARTATE AMINOTRANSFERASE / BLOOD UREA NITROGEN / CARBON DIOXIDE / CHLORIDE / CHOLESTEROL / CREATININE / GLUCOSE / LACTATE DEHYDROGENASE / LIPASE / PHOSPHORUS / POTASSIUM / SODIUM / TOTAL BILIRUBIN / TOTAL PROTEIN / URIC ACID: tissue Plasma

With `CC[C@H]1CN2CCc3cc(OC)c(OC)cc3[C@@H]2C[C@@H]1C[C@H]1NCCc2cc(OC)c(OC)cc21` [EMETINE] the “ABSOLUTE BASOPHIL” value (72 h, time 3 day) was 0 CELLS/uL, the “ABSOLUTE EOSINOPHIL” value (72 h, time 3 day) was 109.67 CELLS/uL and the “ABSOLUTE LYMPHOCYTE” value (72 h, time 3 day) was 11168.33 CELLS/uL. For the same compound, the “ABSOLUTE MONOCYTE” value (72 h, time 3 day) was 226.17 CELLS/uL, the “ABSOLUTE SEGMENTED NEUTROPHIL” value (72 h, time 3 day) was 695.83 CELLS/uL and the BASOPHIL (72 h, time 3 day) was 0%. For the same compound, the EOSINOPHIL (72 h, time 3 day) was 0.83%, the “ERYTHROCYTE COUNT” value (72 h, time 3 day) was 6.2 x10E6/uL and the HEMATOCRIT (72 h, time 3 day) was 37.68%. The HEMOGLOBIN (72 h, time 3 day) was 13.67 G/DL, the “LEUKOCYTE COUNT” value (72 h, time 3 day) was 12.2 x10E3/uL and the LYMPHOCYTE (72 h, time 3 day) was 91.83%. For the same compound, the “MEAN CORPUSCULAR HEMOGLOBIN” value (72 h, time 3 day) was 22.08 pg, the “MEAN CORPUSCULAR HEMOGLOBIN CONCENTRATION” value (72 h, time 3 day) was 36.3 G/DL and the “MEAN CORPUSCULAR VOLUME” value (72 h, time 3 day) was 60.77 fL. The MONOCYTE (72 h, time 3 day) was 1.83%, the NEUTROPHIL (72 h, time 3 day) was 5.5% and the “NUCLEATED RED BLOOD CELLS” value (72 h, time 3 day) was 0 /100WBC. The “PLATELET COUNT” value (72 h, time 3 day) was 755.67 x10E3/uL, the “ALANINE AMINOTRANSFERASE” value (72 h, time 3 day) was 60.83 u/L and the “ALKALINE PHOSPHATASE” value (72 h, time 3 day) was 392.5 u/L. For the same compound, the “ASPARTATE AMINOTRANSFERASE” value (72 h, time 3 day) was 97 u/L, the “BLOOD UREA NITROGEN” value (72 h, time 3 day) was 16.5 mg/dL and the “CARBON DIOXIDE” value (72 h, time 3 day) was 29.83 mmol/L. The CHLORIDE (72 h, time 3 day) was 101.83 MEQ/L, the CHOLESTEROL (72 h, time 3 day) was 72.5 mg/dL and the CREATININE (72 h, time 3 day) was 0.28 mg/dL. For the same compound, the GLUCOSE (72 h, time 3 day) was 195.33 mg/dL, the “LACTATE DEHYDROGENASE” value (72 h, time 3 day) was 240.33 u/L and the LIPASE (72 h, time 3 day) was 9.67 u/L. The PHOSPHORUS (72 h, time 3 day) was 12.47 mg/dL, the POTASSIUM (72 h, time 3 day) was 6.15 MEQ/L and the SODIUM (72 h, time 3 day) was 145.38 MEQ/L. For the same compound, the “TOTAL BILIRUBIN” value (72 h, time 3 day) was 0.17 mg/dL, the “TOTAL PROTEIN” value (72 h, time 3 day) was 6.7 G/DL and the “URIC ACID” value (72 h, time 3 day) was 2.42 mg/dL. For the same compound, the “ABSOLUTE BASOPHIL” value (120 h, time 5 day) was 0 CELLS/uL, the “ABSOLUTE EOSINOPHIL” value (120 h, time 5 day) was 50 CELLS/uL and the “ABSOLUTE LYMPHOCYTE” value (120 h, time 5 day) was 12777 CELLS/uL. For the same compound, the “ABSOLUTE MONOCYTE” value (120 h, time 5 day) was 280.67 CELLS/uL, the “ABSOLUTE SEGMENTED NEUTROPHIL” value (120 h, time 5 day) was 875.67 CELLS/uL and the BASOPHIL (120 h, time 5 day) was 0%. For the same compound, the EOSINOPHIL (120 h, time 5 day) was 0.5%, the “ERYTHROCYTE COUNT” value (120 h, time 5 day) was 6.42 x10E6/uL and the HEMATOCRIT (120 h, time 5 day) was 39.13%. For the same compound, the HEMOGLOBIN (120 h, time 5 day) was 14.17 G/DL, the “LEUKOCYTE COUNT” value (120 h, time 5 day) was 13.98 x10E3/uL and the LYMPHOCYTE (120 h, time 5 day) was 90.83%. For the same compound, the “MEAN CORPUSCULAR HEMOGLOBIN” value (120 h, time 5 day) was 22.1 pg, the “MEAN CORPUSCULAR HEMOGLOBIN CONCENTRATION” value (120 h, time 5 day) was 36.2 G/DL and the “MEAN CORPUSCULAR VOLUME” value (120 h, time 5 day) was 61.07 fL. For the same compound, the MONOCYTE (120 h, time 5 day) was 2%, the NEUTROPHIL (120 h, time 5 day) was 6.67% and the “NUCLEATED RED BLOOD CELLS” value (120 h, time 5 day) was 0 /100WBC. For the same compound, the “PLATELET COUNT” value (120 h, time 5 day) was 838.67 x10E3/uL, the “ALANINE AMINOTRANSFERASE” value (120 h, time 5 day) was 56.5 u/L and the “ALKALINE PHOSPHATASE” value (120 h, time 5 day) was 316.5 u/L. The “ASPARTATE AMINOTRANSFERASE” value (120 h, time 5 day) was 131 u/L, the “BLOOD UREA NITROGEN” value (120 h, time 5 day) was 14.33 mg/dL and the “CARBON DIOXIDE” value (120 h, time 5 day) was 29.83 mmol/L. It also gave a CHLORIDE (120 h, time 5 day) of 100.5 MEQ/L, a CHOLESTEROL (120 h, time 5 day) of 65.83 mg/dL and a CREATININE (120 h, time 5 day) of 0.23 mg/dL. The GLUCOSE (120 h, time 5 day) was 268.83 mg/dL, the “LACTATE DEHYDROGENASE” value (120 h, time 5 day) was 343 u/L and the LIPASE (120 h, time 5 day) was 9.33 u/L. The PHOSPHORUS (120 h, time 5 day) was 13.95 mg/dL, the POTASSIUM (120 h, time 5 day) was 5.37 MEQ/L and the SODIUM (120 h, time 5 day) was 146.53 MEQ/L. The “TOTAL BILIRUBIN” value (120 h, time 5 day) was 0.12 mg/dL, the “TOTAL PROTEIN” value (120 h, time 5 day) was 6.37 G/DL and the “URIC ACID” value (120 h, time 5 day) was 1.97 mg/dL. The “ABSOLUTE BASOPHIL” value ([…], time 14 day) was 0 CELLS/uL, the “ABSOLUTE EOSINOPHIL” value ([…], time 14 day) was 111.67 CELLS/uL and the “ABSOLUTE LYMPHOCYTE” value ([…], time 14 day) was 12370.33 CELLS/uL. The “ABSOLUTE MONOCYTE” value ([…], time 14 day) was 653.33 CELLS/uL, the “ABSOLUTE SEGMENTED NEUTROPHIL” value ([…], time 14 day) was 1414.67 CELLS/uL and the BASOPHIL ([…], time 14 day) was 0%. For the same compound, the EOSINOPHIL ([…], time 14 day) was 0.67%, the “ERYTHROCYTE COUNT” value ([…], time 14 day) was 6.03 x10E6/uL and the HEMATOCRIT ([…], time 14 day) was 36.65%. For the same compound, the HEMOGLOBIN ([…], time 14 day) was 13.4 G/DL, the “LEUKOCYTE COUNT” value ([…], time 14 day) was 14.55 x10E3/uL and the LYMPHOCYTE ([…], time 14 day) was 85.33%. The “MEAN CORPUSCULAR HEMOGLOBIN” value ([…], time 14 day) was 22.27 pg, the “MEAN CORPUSCULAR HEMOGLOBIN CONCENTRATION” value ([…], time 14 day) was 36.58 G/DL and the “MEAN CORPUSCULAR VOLUME” value ([…], time 14 day) was 60.85 fL. The MONOCYTE ([…], time 14 day) was 4.5%, the NEUTROPHIL ([…], time 14 day) was 9.5% and the “NUCLEATED RED BLOOD CELLS” value ([…], time 14 day) was 0 /100WBC. For the same compound, the “PLATELET COUNT” value ([…], time 14 day) was 942 x10E3/uL, the “ALANINE AMINOTRANSFERASE” value ([…], time 14 day) was 53.33 u/L and the “ALKALINE PHOSPHATASE” value ([…], time 14 day) was 293.67 u/L. The “ASPARTATE AMINOTRANSFERASE” value ([…], time 14 day) was 96.83 u/L, the “BLOOD UREA NITROGEN” value ([…], time 14 day) was 15.5 mg/dL and the “CARBON DIOXIDE” value ([…], time 14 day) was 32.17 mmol/L. For the same compound, the CHLORIDE ([…], time 14 day) was 101.33 MEQ/L, the CHOLESTEROL ([…], time 14 day) was 64 mg/dL and the CREATININE ([…], time 14 day) was 0.25 mg/dL. For the same compound, the GLUCOSE ([…], time 14 day) was 178.67 mg/dL, the “LACTATE DEHYDROGENASE” value ([…], time 14 day) was 179.5 u/L and the LIPASE ([…], time 14 day) was 9.17 u/L. For the same compound, the PHOSPHORUS ([…], time 14 day) was 10.88 mg/dL, the POTASSIUM ([…], time 14 day) was 5.91 MEQ/L and the SODIUM ([…], time 14 day) was 145.68 MEQ/L. The “TOTAL BILIRUBIN” value ([…], time 14 day) was 0.2 mg/dL, the “TOTAL PROTEIN” value ([…], time 14 day) was 6.38 G/DL and the “URIC ACID” value ([…], time 14 day) was 1.12 mg/dL.

Reference: ChEMBL document CHEMBL3885881, “DrugMatrix”
